Data on three compounds can be found in publication PMC8066331, “Anticancer Activity of Triazolo-Thiadiazole Derivatives and Inhibition of AKT1 and AKT2 Activation” (Pharmaceutics, 2021).

The subject of data set [1] is DU-145. Kind of data set: MTT in vitro antiproliferative assay, DU-145. In kind it is cell-based, human. The conditions noted are these: DU-145, MTT; for TGI / GI50: 48 h drug exposure; for IC50 / GI50: Homo sapiens; for IC50: 48 h, 50% cell death, read-out: IC50; for GI50: read-out: GI50. The source says:
The in vitro antiproliferative activities of the novel triazolo[3,4-b]thiadiazole derivatives were estimated in ten well-established human cancer cell lines including three ovarian (SKOV-3, UWB 1.289, and UWB 1.289+BRCA1), five colorectal adenocarcinoma (DLD-1, HT-29, LS174T, LoVo, and SW403), and two prostate cancer cell lines (PC-3 and DU-145). All cancer cell lines were obtained from the American Type Culture Collection (ATCC) and cultivated in different culture media according to the instructions. The required growth mediums were supplemented with 10% fetal bovine serum and 1% streptomycin/penicillin. All cancer cell lines were cultured as monolayers and maintained at 37 °C, 5% CO2 in humidified air.
Stock solutions of all tested compounds were prepared by dissolving the required amount of substances in the DMSO solvent to reach the desired concentration of 15 mM.
To evaluate the in vitro antiproliferative activity of the triazolo[3,4-b]thiadiazole derivatives, 3-(4,5-dimethylthiazol-2-yl)-2,5-diphenyltetrazolium bromide (MTT) assay was assessed. According to the protocol, cells were firstly seeded into a 96-well plate at a density of 8 × 10^3 cells and grown for 24 h at 37 °C, 5% CO2 in humidified air. Subsequently, cells were treated with the tested compounds in a specific range of drug concentrations (1–100 μΜ). Following 48 h of drug exposure, the culture media were discarded and replaced with 100 μL of fresh medium. Afterwards, 50 μL of dissolved MTT in phosphate-buffered saline (PBS) solution (5 mg/mL) were added in each well and cells were incubated for 3 h at 37 °C, 5% CO2 in humidified air. Incubation time was followed by MTT discard and the addition of 100 μL of DMSO solvent so that the formazan crystals could be dissolved. The absorbance of the converted dye was immediately measured at a wavelength of 540 nm on an ELISA reader (VersaMax Microplate Reader, Orleans, CA, USA).
The in vitro anticancer effect of a tested compound on cell viability was determined by three dose–response parameters termed GI50, TGI, and IC50. More specifically, the GI50 value indicates the required concentration of the compound that impels 50% cell growth inhibition, the TGI value corresponds to the concentration that induces 100% cell growth inhibition, and the IC50 value is the concentration that causes 50% cell death. The two parameters GI50 and TGI represent the cytostatic activity, whereas IC50 reflects the cytotoxic effect of a drug. To estimate the three parameters, nine absorbance measurements were required including control 24 h (Ct24), control 72 h (Ct72), and the mean of cell survival in all seven drug concentrations (Tt72). The percentage growth inhibition was calculated according to National Cancer Institute’s (NCI) protocol: [(Tt72x) − (Ct24)/(Ct72) − (Ct24)] × 100 for concentrations for which Tt72x > Ct24 and [(Tt72x) − (Ct24)/Ct24] × 100 for concentrations for which Tt72x < Ct24. GI50 was calculated from [(Tt72x) − (Ct24)/(Ct72) − (Ct24)] × 100 = 50, TGI was calculated from [(Tt72x) − (Ct24)/(Ct72) − (Ct24)] × 100 = 0, and IC50 was calculated from [(Tt72x) − (Ct24)/Ct24] × 100 = 50. All the experiments were carried out in triplicate.

In data set [2] the test system is HT-29 human tumor (colorectal adenocarcinoma) xenograft. The experiment in a line: In vivo antitumor activity, HT-29 xenograft. The conditions noted are these: HT-29 xenograft in CB17 SCID mice; for volume size of the tumors: eighteen days after single i.p. dose at LD10; for tumor inhibition (TI): single i.p. dose at LD10. The protocol:
CB17 severe combined immunodeficient (SCID) male and female mice were used for toxicity and antitumor activity studies. Mice were obtained from National Center for Scientific Research (NCSR) Demokritos, Institute of Biology, Athens, Greece. CB17 SCID mice were fed water and an irradiated standard rodent diet ad libitum and housed under specific pathogen-free conditions. For ethical reasons, the weight and tumor volumes of the animals were measured twice a week during the experiment. In case of cachexia, suffering, or increase in the tumor volume up to 2000 mm^3, the animals were sacrificed by cervical disruption. The protocol was approved by the ethical committee of the National and Kapodistrian University of Athens and was conducted according to the European Directive 86/609/EEC guidelines for the care and use of laboratory animals. The study received a permit from the Veterinary Directorate of the Prefecture of Athens (approval #: 2023/2017) according to the Greek legislation conforming to the 2010/53/ EU Council Directive.
HT-29 (human colorectal adenocarcinoma) tumor volume was developed by subcutaneously implanting 2 × 10^6 HT-29 cells/mouse in the right hind flank. In vivo antitumor activity was investigated in 22 mice, of which 7 mice served as the common control group and the 15 remaining mice were divided into three groups of 5 mice. Therefore, each derivative was administered in a group of five mice. The animals were randomized into test groups on day 28 when their tumor volumes were in the 150–200 mm^3 range. After randomization, the mice were treated intraperitoneally (day 1) with the tested compounds (KA25, KA26, and KA39) as a single dose LD10. The control group received saline buffer (0.2 mL).
The tumor volumes were measured using an analogue caliper twice a week starting on the first day of treatment. To determine the volume (mm^3) of each tumor in an animal, the following formula was used: (D × d^2/2), where D and d refer to the larger and smaller perpendicular dimensions collected at each measurement, respectively. The diameters were determined from two orthogonal measurements on each tumor. The mean tumor volume was determined by average all tumor volumes in each group. The weekly mean tumor area change was determined and tumor inhibition (TI) was calculated by the formula: TI (%) = [1 − (TWT − TWZ)/[(TWC − TWZ)] × 100, where TWT is determined as the tumor area (mm^3) in treated animals at the time of evaluation, TWZ is determined as the tumor area (mm^3) at the time of initiation of treatment (zero time), and TWC is determined as the tumor volume (mm^3) in untreated animals (controls) at the time of evaluation. The animals were sacrificed when the tumor volume reached 2000 mm^3 (endpoint).

Data set [3] deals with CB17 SCID mice. The experiment in a line: In vivo acute toxicity. As to conditions: single i.p. injection, 30 days observation, estimated graphically. How it is done:
CB17 severe combined immunodeficient (SCID) male and female mice were used for toxicity and antitumor activity studies. Mice were obtained from National Center for Scientific Research (NCSR) Demokritos, Institute of Biology, Athens, Greece. CB17 SCID mice were fed water and an irradiated standard rodent diet ad libitum and housed under specific pathogen-free conditions. For ethical reasons, the weight and tumor volumes of the animals were measured twice a week during the experiment. In case of cachexia, suffering, or increase in the tumor volume up to 2000 mm^3, the animals were sacrificed by cervical disruption.
For intraperitoneal (i.p.) treatment, stock solutions of the 3 tested compounds were prepared immediately before use. They were suspended in corn oil in the desired concentrations following initial dissolution in 10% dimethyl sulfoxide (DMSO). […] Briefly, the acute toxicity of the tested compounds was assessed for lethality in CB17 SCID mice and determined as previously described. […] Each dosage comprised a group of ten mice, including males and females, that received single i.p. injections.

Bounds are passed on as bounds.

What is called IC50 is the midpoint of a concentration-inhibition curve. A word on the GI50: it is the concentration giving 50% growth inhibition. With `COc1cc(Cc2nnc3sc(C=Cc4ccc(F)cc4)nn23)c(S(=O)(=O)N(C)C)cc1OC` [KA25], in data set [1], the TGI turned out to be 13.2 ± 0.5 μΜ, the IC50 amounted to 27 ± 0.3 µM and the GI50 came to 12.8 ± 1.3 µM. Also, in data set [2], the “volume size of the tumors” value amounted to 521.6 ± 101.6 mm^3 and the “tumor inhibition (TI)” value is listed as 62.1%. For the same compound, the LD10 in data set [3] was 200 mg/kg.

For `COc1cc(Cc2nnc3sc(-c4cc([N+](=O)[O-])ccc4[N+](=O)[O-])nn23)c(S(=O)(=O)N(C)C)cc1OC` [KA39], in data set [1], the TGI is on record as 8 ± 0.4 μΜ, the IC50 was determined as 10.3 ± 1.8 µM and the GI50 is 5.8 ± 0.2 µM. In addition, in data set [2], the “volume size of the tumors” value came out at 489.17 ± 81.5 mm^3 and the “tumor inhibition (TI)” value came out at 67.6%. In data set [3], the LD10 was 70 mg/kg.

In the case of `COc1cc(Cc2nnc3sc(C=Cc4ccc(Cl)cc4)nn23)c(S(=O)(=O)N(C)C)cc1OC` [KA26], in data set [1], the TGI was 70 ± 1.3 μΜ, the IC50 was more than 100 µM and the GI50 worked out at 7 ± 1 µM. In data set [2], the “volume size of the tumors” value amounted to 528.5 ± 167.7 mm^3 and the “tumor inhibition (TI)” value was found to be 62.4%. Also, in data set [3], the LD10 was 100 mg/kg.
